Measured values: patent US20050256103A1, “Indole derivative having piperidine ring” (Eisai Co., Ltd., priority 2004, published 2005)
Like-named read-outs stand apart in the source and are kept apart here.

Legend:
5-HT1A receptor = biological target: T1, 5-HT1A receptor (Sus scrofa, UniProt A0A4X1UTF5); assay: Affinity for serotonin 1A receptor: inhibition of [3H]MPPF binding in swine hippocampal membrane fraction; conditions: for IC50: [3H]MPPF 0.5 nM, swine hippocampal membrane, 37°C 30 min
T1 construct: Swine hippocampus was homogenized in a 50 mM Tris-Hcl buffer; from tissue; host or cells: swine hippocampus, membrane fraction
T1 sequence (A0A4X1UTF5 1-422): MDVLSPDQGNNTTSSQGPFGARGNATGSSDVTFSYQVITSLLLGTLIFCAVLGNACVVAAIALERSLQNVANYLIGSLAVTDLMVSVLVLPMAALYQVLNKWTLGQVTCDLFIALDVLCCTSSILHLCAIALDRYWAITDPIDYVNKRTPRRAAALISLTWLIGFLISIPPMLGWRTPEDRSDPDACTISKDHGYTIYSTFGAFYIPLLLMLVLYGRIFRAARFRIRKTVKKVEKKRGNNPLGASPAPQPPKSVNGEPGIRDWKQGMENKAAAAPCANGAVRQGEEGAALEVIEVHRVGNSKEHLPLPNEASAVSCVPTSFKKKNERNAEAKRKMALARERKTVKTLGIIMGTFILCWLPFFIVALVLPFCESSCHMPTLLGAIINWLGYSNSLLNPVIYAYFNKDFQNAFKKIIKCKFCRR
In short: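 Swine hippocampal membranes incubated 30 min at 37 °C with 0.5 nM [3H]MPPF and test compound in 50 mM Tris-HCl pH 7.4, 1% DMSO, with 10 mM MgCl2 (G-protein-coupled, high-affinity state) or 1 mM Gpp(NH)p (uncoupled, low-affinity state). Bound radioactivity measured by filtration and scintillation counting; nonspecific binding defined with 10 μM WAY-100,635. IC50 in each state; low/high IC50 ratio taken as an estimate of intrinsic activity.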

male C57BL mice = assay: Antianxiety effect by mouse light/dark box test; format: in vivo; conditions: sc, 30 minutes before test, 5 min observation, N 7
Procedure: (1) The method of Belzung C., Misslin R., and Vogel E. (Reference: Behavioural effects of the benzodiazepine receptor partial agonist RO16-6028 in mice, Psychopharmacology, 97, 388-391, 1989) was modified. The present mouse light/dark box test was carried out according to such a modified method. As a test device used in this test, a lidded black acryl box (dark box, 15×10×20 cm) was connected to a lidless white acryl box (light box, 15×20×20 cm) using a black-acryl tunnel (10×7×4.5 cm), so as to prepare a light/dark box in which a mouse can freely move between the dark box and the light box. In this test device, in order to observe the behavior of the mouse, the anterior surface (20×20 cm) and back surface (20×20 cm) of the light box were made from transparent acryl. The illumination was set to provide in an illuminance of 150 Lux on the floor of the light box. Thereafter, each of male C57BL mice (20-35 g) was placed in the dark box, and the test was started. In this test, a test substance was subcutaneously administered to the test animal 30 minutes before the initiation of the test.
A state where the 4 legs of the mouse were contacted with on the floor of the light box was defined as stay at a light place, and the time when the mouse stayed at a light place was measured. The obtained time was used as an index of antianxiety action.

[1] = system: urinary reflex of Sprague-Dawley female rats; assay: Inhibitory action against accentuated urinary reflex of rat due to destruction of the superior colliculus (cystometrogram); format: in vivo; conditions: dose 0.3 mg/kg, iv; rat with superior colliculus lesion
Text: (1) In the present test, Sprague-Dawley female rates (200-350 g) were used. The rats were subjected to median incision of the abdomen under anesthesia. Thereafter, a hole with a minor diameter was made on the head portion of the bladder, and a catheter used for measurement of an intravesical pressure was placed therein. A catheter used for administration of a test substance was placed in the femoral vein. These catheters were fixed at the occipital region of the rat through the subcutis. One day later, the urinary reflex of the rats was measured with a cystometrogram. Thereafter, the rats were fixed on a brain stereotaxis apparatus under anesthesia, and then subjected to median incision of the scalp. […] Thereafter, electric current was applied (65° C., 4 minutes), so as to damage the brain tissues. After completion of the operation, when the rat awakened from anesthesia, cystometrogram was conducted again to confirm the enhanced state of urinary reflex. A test substance was administered through the catheter placed in the femoral vein, and the action of the test substance to the urinary reflex was evaluated. In addition, the effects of several test substances were compared using the maximal reaction (Emax).

## CNC(=O)c1ccc2ccn(C3CCN(CCc4c(OC)ccc5c4OC(C)(C)CC5=O)CC3)c2c1 [Compound 20, 1-{1-[2-(7-methoxy-2,2-dimethyl-4-oxochroman-8-yl)ethyl]piperidin-4-yl}-N-methyl-1H-indole-6-carboxamide]
5-HT1A receptor; receptor in high affinity (G-protein binding, MgCl2 10 mM) state, read-out: High affinity IC50
  IC50: 0.2 nM
5-HT1A receptor; receptor in low affinity (G-protein non-binding, Gpp(NH)p 1 mM) state, read-out: Low affinity IC50
  IC50: 0.16 nM
5-HT1A receptor; low affinity IC50 divided by high affinity IC50, 1 or smaller = no intrinsic activity, 2 or greater = intrinsic activity
  L/H ratio: 0.8
Male C57BL mice; 0.03 mg/kg
  Time of stay at light place: 46 ± 9.4 s
Male C57BL mice; 0.1 mg/kg
  Time of stay at light place: 67 ± 19 s
[1]
  Bladder capacity Emax: 94%
